Here are results for 3 molecules from ChEMBL document CHEMBL1158678, “Two new mono-tetrahydrofuran ring acetogenins, annomuricin E and muricapentocin, from the leaves of Annona muricata” (J Nat Prod, 1998).

Structures are written as SMILES. Converted amounts (≈) assume the structure as drawn.

Data set [1] in a line: Toxicity against Artemia salina. Type of data set: organism-based. The following applies: in vivo, read-out: ED50 (the source's name).
In another data set the test system is HT-29. Nature of the data set: Cytotoxicity against human HT-29 cells after 7 days by MTT assay. The format is functional. The following applies: HT-29, 168 h, read-out: ED50 (the source's name). (In general: Tetrazolium dyes change colour on reduction, which living cells bring about.)
For another data set, the system named is A498. Nature of the data set: Cytotoxicity against human A498 cells after 7 days by MTT assay. Type of data set: functional. The settings on record: A498, 168 h, read-out: ED50 (the source's name).
The subject of another data set is PC-3. In words: Cytotoxicity against human PC3 cells after 7 days by MTT assay. The following applies: PC-3, 168 h, read-out: ED50 (the source's name). Type of data set: functional.
Another data set relates to MIA PaCa-2. Nature of the data set: Cytotoxicity against human MIAPaCa2 cells after 7 days by MTT assay. The settings on record: MIA PaCa-2, 168 h, read-out: ED50 (the source's name). Type of data set: functional.
In the next data set the test system is A549. Nature of the data set: Cytotoxicity against human A549 cells after 7 days by MTT assay. The format is functional. The settings on record: A549, 168 h, read-out: ED50 (the source's name).
Another data set has as its system MCF7. In words: Cytotoxicity against human MCF7 cells after 7 days by MTT assay. The settings on record: MCF7, 168 h, read-out: ED50 (the source's name). The format is functional.

Consider `CCCCCCCCCCCC[C@@H](O)[C@H]1CC[C@H]([C@H](O)CCC(O)CCCC(O)CCC[C@@H](O)CC2=C[C@H](C)OC2=O)O1` (stereo not given in full) [MURICAPENTOCIN], for which the LC50 in data set [1] was found to be 1.86 µg/mL (≈ 3.03 µM). For the same molecule, the EC50 was found to be 0.071 µg/mL (≈ 0.116 µM) with HT-29; 1.72 µg/mL (≈ 2.81 µM) in the data set on A498; 0.45 µg/mL (≈ 0.734 µM) in the data set with PC-3; 0.0503 µg/mL (≈ 0.0821 µM) in the data set on MIA PaCa-2; 0.193 µg/mL (≈ 0.315 µM) in the data set with A549; 1.9 µg/mL (≈ 3.1 µM) in the data set on MCF7.

As to `CCCCCCCCCCCC[C@@H](O)[C@H]1CC[C@H]([C@H](O)CCC[C@@H](O)[C@@H](O)CCCCC[C@@H](O)CC2=C[C@H](C)OC2=O)O1` [ANNOMURICIN E], the LC50 in data set [1] stood at 11.8 µg/mL (≈ 19.3 µM). In addition, the EC50 in the data set with HT-29 is 0.0668 µg/mL (≈ 0.109 µM); in the data set with A498 it was 1.41 µg/mL (≈ 2.3 µM); with PC-3, 0.146 µg/mL (≈ 0.238 µM); in the data set with MIA PaCa-2 it was 0.0242 µg/mL (≈ 0.0395 µM); in the data set on A549 it was 0.112 µg/mL (≈ 0.183 µM); in the data set with MCF7 it was 1.45 µg/mL (≈ 2.37 µM).

Turning to `COc1cccc2c1C(=O)c1c(O)c3c(c(O)c1C2=O)C[C@@](O)(C(=O)CO)C[C@@H]3O[C@H]1C[C@H](N)[C@H](O)[C@H](C)O1` [DOXORUBICIN], the EC50 in the data set on HT-29 is 0.0381 µg/mL (≈ 0.0701 µM); in the data set with A498, 0.0158 µg/mL (≈ 0.0291 µM); with PC-3, 0.0355 µg/mL (≈ 0.0653 µM); with MIA PaCa-2, 0.00456 µg/mL (≈ 0.00839 µM); in the data set with A549 it was 0.00294 µg/mL (≈ 0.00541 µM); in the data set on MCF7, 0.124 µg/mL (≈ 0.228 µM).
